Structures are written as SMILES.

In the data set the test system is Tetrahymena pyriformis. Kind of data set: 48 h IGC50 (-log10 mol/L); higher = more toxic.
In the case of `CCCC#CCC(O)CC` (configuration not stated), the “48 h IGC50 (-log10 mol/L)” value is 2.96.
The figure for `O=Cc1cccc([N+](=O)[O-])c1O` is 3.87; for `OCc1ccccc1F` it is 2.33; for `O=C(OCc1ccccc1)c1ccc(O)cc1` it is 4.55.
For `CCCCCl`, the “48 h IGC50 (-log10 mol/L)” value was determined as 2.09.
The figure for `OCc1c(F)c(F)c(F)c(F)c1F` is 2.8.
As to `N#CC(Cl)Cl`, the “48 h IGC50 (-log10 mol/L)” value is 3.97.
Take `O=Cc1c(O)cc(O)cc1O`: the “48 h IGC50 (-log10 mol/L)” value is 3.13.
The figure for `C=Cc1ccc2ccccc2c1` is 4.24; for `COc1ccc(CO)cc1O` it is 2.01; for `N#CCc1ccccc1` it is 2.64.
Consider `C=CC(C)O` (configuration not stated), for which the “48 h IGC50 (-log10 mol/L)” value was 1.95.
The figure for `CC(Cl)C#N` (configuration not stated) is 2.14; for `N#Cc1cc(Br)c(O)c(Br)c1` it is 4.16.
The figure for `CCOC(=O)c1ccc(F)cc1` is 3.01.
Take `CCC#CCO`: the “48 h IGC50 (-log10 mol/L)” value was determined as 2.43.
In the case of `Cc1ccc(O)c([N+](=O)[O-])c1` it was 3.57; in that of `O=C(CBr)Oc1ccc([N+](=O)[O-])cc1`, 4.81; in that of `Cc1nc2ccccc2nc1C`, 3.25.
The figure for `N#Cc1ccccc1O` is 3.04; for `CCC(O)(CC)C(C)(C)C` it is 2.83; for `CCCOS(=O)OCCC` it is 3.09.
In the case of `Cc1cc(O)ccc1[N+](=O)[O-]`, the “48 h IGC50 (-log10 mol/L)” value was found to be 4.73.
Consider `CCC(N)CC`, for which the “48 h IGC50 (-log10 mol/L)” value stood at 2.19.
In the case of `CCCCCCC#CC(=O)OCC` it was 4.38; in that of `CCCCCC(=O)CC(C)=O`, 3.51.
Turning to `Cc1ccc(CCN)cc1`, the “48 h IGC50 (-log10 mol/L)” value stood at 2.96.
For `O=[N+]([O-])c1cc(Br)cc(F)c1O`, the “48 h IGC50 (-log10 mol/L)” value stood at 4.62.
In the case of `S=C=NCCCc1ccccc1`, the “48 h IGC50 (-log10 mol/L)” value was found to be 5.54.
As to `NC(=O)CI`, the “48 h IGC50 (-log10 mol/L)” value came out at 4.85.
The figure for `CCOC(=O)Cc1cccnc1` is 2.06; for `N#CCCBr` it is 2.5; for `CCCC(=O)O` it is 2.43.
As to `Cc1cc(C)c(O)c(C)c1`, the “48 h IGC50 (-log10 mol/L)” value was found to be 3.42.
Turning to `CCOC(=O)C(C)(C)Br`, the “48 h IGC50 (-log10 mol/L)” value amounted to 3.15.
The figure for `CCC(=O)c1ccccc1` is 2.93.
The figure for `N#Cc1ccc(C=O)cc1` is 3.04; for `C=CC(=O)CC` it is 4.52.
The figure for `OCCc1ccccc1` is 2.41; for `O=[N+]([O-])c1cccc(O)c1` it is 3.51; for `CC1CCCCC1=O` (configuration not stated) it is 2.19.
Turning to `NNC(=O)c1ccccc1O`, the “48 h IGC50 (-log10 mol/L)” value amounted to 3.18.
The figure for `CCCNC(C)=O` is 1.5; for `Oc1ccc(N=Nc2ccccc2)cc1` it is 4.66; for `CCCCCCC=O` it is 3.
In the case of `CC(C)CC(N)=O` it was 1.34.
In the case of `CCNC(C)=O` it was 1.3; in that of `CC#CC(=O)OC`, 3.4; in that of `O=[N+]([O-])c1cc([N+](=O)[O-])c(F)cc1F`, 5.08.
For `NC(N)=NC(N)=Nc1ccccc1`, the “48 h IGC50 (-log10 mol/L)” value is 2.61.
For the compound `O=C(O)c1c(Cl)cc(Cl)cc1Cl`, the “48 h IGC50 (-log10 mol/L)” value was 2.59.
The figure for `CCOC(=O)C(Br)(Br)C(=O)OCC` is 5.14; for `O=[N+]([O-])c1ccc(CCl)cc1` it is 4.18; for `NCCc1ccccn1` it is 2.26.
In the case of `O/N=C\c1ccccc1` it was 2.89; in that of `CCCC(C)N` (configuration not stated), 2.31; in that of `CCCCOC(=O)/C=C/c1ccccc1`, 4.53.
In the case of `N#Cc1cc([N+](=O)[O-])cc([N+](=O)[O-])c1` it was 4.22.
Turning to `O=[N+]([O-])c1ccc(O)c(F)c1`, the “48 h IGC50 (-log10 mol/L)” value turned out to be 4.07.
The figure for `Cc1cc(O)ccc1O` is 4.86; for `O=C(OCCO)c1ccccc1O` it is 2.92; for `C/C=C/C(=O)OC` it is 2.08.
The figure for `CCOC(=O)c1ccc(I)cc1` is 4.53; for `CCOc1ccc(O)cc1` it is 3.01.
Consider `CC(C)(CN)CO`, for which the “48 h IGC50 (-log10 mol/L)” value turned out to be 2.08.
For the compound `CCCCCCCCC(=O)OC`, the “48 h IGC50 (-log10 mol/L)” value was determined as 4.04.
For the compound `CC(=O)c1ccc(O)cc1C`, the “48 h IGC50 (-log10 mol/L)” value is 3.19.
In the case of `CCOC(=O)CC(C)C` it was 2.28; in that of `COc1ccc([N+](=O)[O-])cc1`, 3.54; in that of `OCCc1ccc(O)cc1`, 2.17.
In the case of `O=C(c1ccc(O)cc1O)c1ccc(O)cc1O` it was 3.96.
The figure for `CCCCCCCCCC=CCO` is 5.09.
In the case of `OCc1ccc(Cl)cc1`, the “48 h IGC50 (-log10 mol/L)” value amounted to 3.25.
On to `CCOC(=O)C#Cc1ccccc1`, for which the “48 h IGC50 (-log10 mol/L)” value was determined as 4.67.
Turning to `C=COC(=O)CCCCCCC`, the “48 h IGC50 (-log10 mol/L)” value is 2.7.
Consider `Cc1cccc(CO)c1`, for which the “48 h IGC50 (-log10 mol/L)” value was 2.76.
In the case of `COc1cc(O)cc(Cl)c1` it was 3.76; in that of `CC(C)(C)c1ccc(N)cc1`, 3.36.
In the case of `CC(=O)c1ccc(C)[nH]1`, the “48 h IGC50 (-log10 mol/L)” value stood at 2.17.
Regarding `N#CCCCCBr`, the “48 h IGC50 (-log10 mol/L)” value was found to be 2.79.
`CCCC(Br)C(=O)O` (configuration not stated): the “48 h IGC50 (-log10 mol/L)” value was 2.96.
The figure for `CCCCCC1CCC(=O)O1` (configuration not stated) is 3.01; for `O=Cc1ccccn1` it is 2.86; for `CC(=O)c1ccco1` it is 1.96.
For the compound `C#CC(=O)OCC`, the “48 h IGC50 (-log10 mol/L)” value worked out at 4.7.
The figure for `CC(C)CN` is 2.74.
As for `COC(=O)c1ccc(C#N)cc1`, the “48 h IGC50 (-log10 mol/L)” value was found to be 2.95.
The figure for `OCc1cccc(Br)c1` is 3.37; for `CCCCCCN` it is 2.78; for `Ic1ccccc1` it is 3.36.
The figure for `COc1cc(C#N)ccc1O` is 2.97; for `CCCCCCC#N` it is 2.76; for `N#Cc1c(F)c(F)c(C#N)c(F)c1F` it is 5.55.
`O=Cc1ccc(O)c2ccccc12`: the “48 h IGC50 (-log10 mol/L)” value is 4.05.
Regarding `Nc1ccc([N+](=O)[O-])cc1[N+](=O)[O-]`, the “48 h IGC50 (-log10 mol/L)” value was determined as 3.72.
The figure for `CCOC(=O)c1ccc(C)cc1` is 3.68; for `CCC(O)CO` (configuration not stated) it is 0.952; for `O=[N+]([O-])c1ccc(Br)nc1` it is 4.07.
With `NC(=O)c1ccco1`, the “48 h IGC50 (-log10 mol/L)” value is 1.56.
The figure for `Oc1ccccc1-c1ccccc1O` is 3.88; for `Cc1cc(C)c(O)c(C(C)(C)C)c1` it is 4.16.
In the case of `Nc1c(Cl)c(Cl)cc(Cl)c1Cl` it was 4.76.
As to `CCC(O)c1ccccc1` (configuration not stated), the “48 h IGC50 (-log10 mol/L)” value was 2.57.
As for `CCOC(=O)CCC(C)=O`, the “48 h IGC50 (-log10 mol/L)” value stood at 1.6.
For the compound `CCCCCCCCCCN`, the “48 h IGC50 (-log10 mol/L)” value was 5.06.
As to `CCCCCCCC(O)CCCCC` (configuration not stated), the “48 h IGC50 (-log10 mol/L)” value turned out to be 5.24.
In the case of `O=C(O)Cc1ccc(O)cc1` it was 1.5; in that of `CC(C)C#N`, 1.38.
As to `CC(=O)OCCCCCBr`, the “48 h IGC50 (-log10 mol/L)” value was determined as 3.29.
For the compound `CCCCCC1CCCC(=O)O1` (configuration not stated), the “48 h IGC50 (-log10 mol/L)” value was found to be 2.92.
In the case of `Cc1cccc(C)c1N` it was 2.57; in that of `Oc1c(F)c(F)c(O)c(F)c1F`, 4.84; in that of `CC(C)(C)CCO`, 2.26.
The figure for `CCCCCCOC(=O)c1ccccc1` is 4.94; for `CCCCOC(=O)c1ccccc1` it is 3.92.
On to `COc1ccc(C(C)=O)cc1`, for which the “48 h IGC50 (-log10 mol/L)” value is 2.87.
In the case of `C=C(C=O)CC` it was 3.91; in that of `CCCc1ccccc1N`, 3.08; in that of `CN(CCO)CCO`, 1.17.
For `Brc1ccoc1`, the “48 h IGC50 (-log10 mol/L)” value was determined as 2.52.
In the case of `CCC(C)CN` (configuration not stated) it was 2.52; in that of `O=[N+]([O-])c1cccc2cccnc12`, 3.08.
The figure for `O=C/C=C/c1ccco1` is 3.37; for `CCOC(=O)C(Cl)C(=O)OCC` it is 3.63.
Regarding `CC#Cc1ccccc1`, the “48 h IGC50 (-log10 mol/L)” value is 3.19.
For the compound `Cc1cc(Br)cc(Cl)c1O`, the “48 h IGC50 (-log10 mol/L)” value is 4.28.
Consider `C/C=C/c1ccc(O)c(OC)c1`, for which the “48 h IGC50 (-log10 mol/L)” value stood at 3.75.
In the case of `Nc1ccc(C(=O)c2ccccc2)cc1`, the “48 h IGC50 (-log10 mol/L)” value was found to be 3.68.
In the case of `CC(C)C(N)CO` (configuration not stated) it was 2.42; in that of `C=CC(=O)CCC`, 4.66.
In the case of `O=Cc1ccc([N+](=O)[O-])s1`, the “48 h IGC50 (-log10 mol/L)” value was 4.98.
Turning to `CCN(C)C`, the “48 h IGC50 (-log10 mol/L)” value was determined as 2.09.
The figure for `Cc1ccsc1` is 2.3.
In the case of `COP(=O)(OC)OC`, the “48 h IGC50 (-log10 mol/L)” value was 1.18.
`Oc1ccc(F)cc1F`: the “48 h IGC50 (-log10 mol/L)” value was 3.6.
The figure for `O=C(Cc1ccccc1)c1ccc(O)cc1` is 4.07; for `NC(=O)CCCl` it is 1.41.

The values above are taken from EPA's aquatic toxicity sets.
